Data from patent US20250213649A1, “PEPTIDE HAVING ANTI-INFLAMMATORY AND ANTI-FIBROTIC ACTIVITIES AND USE THEREOF” (CAREGEN CO., LTD., priority 2022, published 2025).

System: A549 cells
Experiment: Inhibition of inflammatory cytokine gene expression induced by IL-1β, RT-PCR, A549 cells
Format: cell-based, human
Conditions: IL-1β 2 ng/ml, peptide 10, 50, 100, 500 μM, 3 hours, RT-PCR (FIG. 8)
Experimental: A549 cells (human alveolar basal epithelial cells) were seeded at 3×10^5 cells/well in a 6-well plate and used in the experiment. After culturing for 1 day with a culture medium containing 10% FBS, the culture medium was replaced with a culture medium without containing FBS to induce starvation for 4 hours. A normal group without being treated with any substances, a group treated with IL-1β (2 ng/ml) (negative control group), groups treated with IL-1β (2 ng/ml) and the peptide of Production Example 1 (10, 50, 100, 500 μM), and a group treated with IL-1β (2 ng/ml) and 10 μM of Dexamethasone (DEX) (positive control group) were treated with the above-described active substances and drugs respectively, and then RNA was extracted after 3 hours to carry out RT-PCR. RNA was extracted from the A549 cells in each of the above groups using an easy-BLUE™ Total RNA extraction kit (Qiagen, Germany). The extracted RNA was converted into cDNA with RT-PCR premix (iNtRON Biotechnology, Seongnam, Korea). After preparing a reaction mixture with PCR premix (iNtRON Biotechnology, Seongnam, Korea) and primers for each gene, PCR was carried out using a PCR machine (Eppendorf, Germany). Next, the mRNA expression pattern was determined by agarose gel electrophoresis. The base sequences of the primers used in the experiment are as shown in [Table 2].

Sequence: KYLLVHRPYYRR [peptide of Production Example 1]
- gene expression level of COX-2: decreases in a concentration-dependent manner
- gene expression level of IL-1β: decreases in a concentration-dependent manner
- gene expression level of IL-6: decreases in a concentration-dependent manner
- gene expression level of IL-8: decreases in a concentration-dependent manner
- gene expression level of TNF-α: decreases in a concentration-dependent manner
